# From patent US10517889B2, “Modulators of SMAD7 expression” (Ionis Pharmaceuticals, Inc., priority 2017, dated 2019)
# Strand notation (5' to 3'): a small letter for the sugar, then the base; units joined by * are phosphorothioate-linked, units joined directly phosphodiester-linked; [ ] holds rarer units or linkages, { } end groups; capitals alone tell only the bases. k = constrained ethyl (cEt); [5mC] = 5-methylcytosine; d = 2'-deoxy (DNA)
# Test system: human SMAD7 mRNA
# Assay: Antisense inhibition of human SMAD7 mRNA expression in Hep3B cells by 3-10-3 cEt gapmers, 10,000 nM, electroporation (Example 2)
# Type: cell-based
# Details: Hep3B cells, 10,000 nM antisense oligonucleotide, electroporation, approximately 24 hours, RT-PCR primer probe set RTS5062, relative to untreated control cells
# In short: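 Percent inhibition of SMAD7 mRNA, relative to untreated cells, after ~24 h exposure of electroporated Hep3B cells to 10,000 nM cEt gapmer; levels by qRT-PCR, corrected for total RNA.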
row,Substance,% Inhibition
1,800051 (antisense k[5mC]*kA*kG*d[5mC]*dA*d[5mC]*dA*dT*d[5mC]*d[5mC]*dA*d[5mC]*d[5mC]*k[5mC]*kT*kT) [compound 800051],20%
2,799860 (kT*kG*k[5mC]*d[5mC]*dG*dA*d[5mC]*dA*d[5mC]*dA*dT*dG*dA*kG*kG*k[5mC]; antisense) [compound 799860],0%
3,799950 (antisense kG*k[5mC]*kA*d[5mC]*dA*dA*dG*dT*d[5mC]*dA*d[5mC]*dT*dG*kG*k[5mC]*k[5mC]) [compound 799950],0%
4,799914 (antisense k[5mC]*kT*kG*dA*dG*dA*dG*dA*dG*dG*d[5mC]*d[5mC]*dT*k[5mC]*kA*kG) [compound 799914],24%
5,799998 (k[5mC]*kA*kG*dT*dA*dA*dA*dG*dA*d[5mC]*dA*dT*dG*kA*kG*k[5mC]; antisense) [compound 799998],45%

# Same assay, conditions: Hep3B cells, electroporation with 10,000 nM antisense oligonucleotide, approximately 24 hours, RTS5062, percent inhibition of SMAD7 mRNA relative to untreated control cells
row,Substance,% Inhibition
1,799810 (antisense k[5mC]*kT*kT*dA*dT*dT*dG*dT*dT*dT*dT*dT*dG*kT*kT*k[5mC]) [compound 799810],14%

# Same assay, conditions: Hep3B cells, electroporation with 10,000 nM antisense oligonucleotide, approximately 24 hours, SMAD7 mRNA by RT-PCR (RTS5062), relative to untreated control cells
row,Substance,% Inhibition
1,799372 (antisense k[5mC]*k[5mC]*k[5mC]*dA*dT*d[5mC]*dT*dA*dT*d[5mC]*dG*dA*dA*kT*k[5mC]*kA) [compound 799372],67%
2,772557 (antisense kG*kT*k[5mC]*d[5mC]*dA*dG*dG*d[5mC]*dG*dG*d[5mC]*d[5mC]*dG*kG*kG*k[5mC]) [compound 772557],2%
3,799426 (antisense kG*k[5mC]*kT*dT*dA*dA*dA*dT*dT*dA*dT*dA*dG*k[5mC]*kA*kA) [compound 799426],7%
4,799393 (antisense kT*kG*k[5mC]*dT*dT*dT*dG*d[5mC]*dG*dG*dG*d[5mC]*d[5mC]*kA*k[5mC]*kT) [compound 799393],56%
5,799869 (k[5mC]*k[5mC]*kA*dT*dA*dA*dA*d[5mC]*dA*dT*dG*dG*dG*k[5mC]*kT*k[5mC]; antisense) [compound 799869],16%
6,830112 (kG*k[5mC]*k[5mC]*d[5mC]*d[5mC]*dA*dT*dT*d[5mC]*dA*dT*dT*dA*kA*kG*k[5mC]; antisense) [compound 830112],23%
7,799367 (antisense kA*kG*kT*d[5mC]*dT*d[5mC]*d[5mC]*dG*dA*dG*dT*dT*dA*kT*k[5mC]*k[5mC]) [compound 799367],41%

# Same assay, conditions: Hep3B cells, electroporation with 10,000 nM antisense oligonucleotide, approximately 24 hours, primer probe set RTS5062, relative to untreated control cells
Substance,% inhibition of SMAD7 mRNA expression,% Inhibition
798946 (antisense kG*kA*kA*d[5mC]*dA*d[5mC]*dA*dA*dA*d[5mC]*dG*dA*dG*kG*kA*k[5mC]) [compound 798946],4%,–
799037 (k[5mC]*k[5mC]*k[5mC]*d[5mC]*dA*dG*d[5mC]*d[5mC]*dG*d[5mC]*d[5mC]*dA*dG*k[5mC]*kT*kT; antisense) [compound 799037],–,9%
799020 (kG*kA*k[5mC]*dT*dG*d[5mC]*dA*dA*dA*d[5mC]*d[5mC]*dT*d[5mC]*kT*k[5mC]*kT; antisense) [compound 799020],–,48%
798724 (antisense k[5mC]*kA*k[5mC]*d[5mC]*dG*d[5mC]*d[5mC]*dT*dT*dG*d[5mC]*d[5mC]*d[5mC]*kA*kG*kG) [compound 798724],19%,–

# Same assay, conditions: Hep3B cells, electroporation, 10,000 nM antisense oligonucleotide, approximately 24 hours, RTS5062, relative to untreated control cells
row,Substance,% inhibition of SMAD7 mRNA expression
1,799286 (antisense kG*k[5mC]*kT*d[5mC]*dA*dG*dG*d[5mC]*dT*dT*d[5mC]*dA*d[5mC]*kT*kG*k[5mC]) [compound 799286],0%
2,799283 (antisense kA*kA*kG*dA*d[5mC]*dA*dG*dA*d[5mC]*d[5mC]*dA*d[5mC]*dA*kG*k[5mC]*kA) [compound 799283],34%
3,799816 (antisense kT*kG*kA*d[5mC]*dA*dA*dG*dG*dT*d[5mC]*d[5mC]*d[5mC]*d[5mC]*kA*kG*kG) [compound 799816],19%

# Same assay, conditions: SMAD7 mRNA, Hep3B cells, electroporation with 10,000 nM antisense oligonucleotide, approximately 24 hours, primer probe set RTS5062, relative to untreated control cells
row,Substance,% Inhibition
1,829838 (k[5mC]*k[5mC]*k[5mC]*dA*dG*dT*dA*dT*dG*d[5mC]*d[5mC]*dA*d[5mC]*k[5mC]*kA*k[5mC]; antisense) [compound 829838],28%
